Source: patent US20130059783A1, “COMPOSITIONS AND METHODS FOR EXPANDING BFU-E CELLS” (priority 2010, published 2013)

System: mRNA expression in BFU-E cells
Assay: mRNA-Seq of BFU-E cells cultured 4 hours with or without Dex (Table S3)
Assay type: cell-based, mouse
Details: for Expression level log2((100 nM DEX)* (0 nM DEX)) / Expression of mRNA in BFU-E after 4 h 100 nM DEX (RPKM) / Expression change log2 ((100 nM DEX)/(0 nM DEX)) / Expression change log2 ((100 nM DEX)/(0 nM DEX))2: BFU-E, 4 h; for Expression change log2 ((100 nM DEX)/(0 nM DEX)): 100 nM vs 0 nM DEX
Description: FIGS. 2A-2B. The effect of glucocorticoids on miRNA and mRNA expression in BFU-E cells determined by next generation sequencing. […] Both mRNAs and miRNAs were subjected to Illumina deep sequencing. […] (B) A plot similar to that in A for expression of individual mRNAs. mRNA expression was normalized using the RPKM method, which determines the relative expression of each gene to all expressed genes by giving each gene an RPKM count (number of uniquely aligning reads per kb exon per million total reads). […]
To minimize the risk of false positive GC target genes we chose to compare only highly expressed genes (≈10,000 genes with a multiplied RPKM count >4) (Mortazavi et al., 2008).
Samples for Paired-End mRNA-Seq were prepared using the Solexa kit according to the manufacturer's instructions with the exception that we extracted 300 bp bands, before and after the PCR step (Illumina). Images acquired from the Solexa sequencer were processed through the bundled Solexa image extraction pipeline version 1.4. mRNA-Seq reads were aligned to mouse NCBI build 37 (mm9) using ELAND, Briefly, the first 32 bases of a read were used as a seed. Each matched seed was then extended up to 36 bases and scored to break any ties between multi-matches. For mRNA expression counts, unique reads in the genome that landed within any exons of NCBI gene models (v37.1) were counted. The counts were normalized by the mRNA length to get the final RPKM values (i.e. reads per KB per million reads).

[1] = BFU-E cells, 4 hours, 100 nM Dex
[2] = gene 38413 (membrane-associated ring finger (C3HC4) 3)

C[C@@H]1C[C@H]2[C@@H]3CCC4=CC(=O)C=C[C@]4(C)[C@@]3(F)[C@@H](O)C[C@]2(C)[C@@]1(O)C(=O)CO [Dex, dexamethasone]
Upregulation of Ddit4 (BFU-E cells, 4 hours): > 8 fold | Genes differentially expressed (more than a factor of 2) [1]: 195 genes | Genes down regulated (more than a factor of 2) [1]: 112 genes | Genes up regulated (more than a factor of 2) [1]: 83 genes | Expression level log2((100 nM DEX)* (0 nM DEX)) [2]: 4.94 | Expression of mRNA in BFU-E after 4 h 100 nM DEX (RPKM) [2]: 8.25 RPKM | Expression of mRNA in BFU-E after 4 h 100 nM DEX (RPKM) (gene 0610040J01Rik): 14.77 RPKM | Expression change log2 ((100 nM DEX)/(0 nM DEX)) (gene 0610040J01Rik): 2.84 | Expression of mRNA in BFU-E after 4 h 100 nM DEX (RPKM) (gene Acp5): 20.40 RPKM | Expression change log2 ((100 nM DEX)/(0 nM DEX)) (gene Acp5): 2.70 | Expression of mRNA in BFU-E after 4 h 100 nM DEX (RPKM) (gene Ampd3): 15.71 RPKM | Expression of mRNA in BFU-E after 4 h 100 nM DEX (RPKM) (gene Ank): 48.60 RPKM | Expression change log2 ((100 nM DEX)/(0 nM DEX)) (gene Ank): 2.06 | Expression change log2 ((100 nM DEX)/(0 nM DEX))2 (gene Aqp3): 1.34 | Expression of mRNA in BFU-E after 4 h 100 nM DEX (RPKM) (gene Aqp3): 6.98 RPKM | Expression of mRNA in BFU-E after 4 h 100 nM DEX (RPKM) (gene Arhgef3): 16.21 RPKM | Expression change log2 ((100 nM DEX)/(0 nM DEX)) (gene Arhgef3): 2.88 | Expression level log2((100 nM DEX)* (0 nM DEX)) (gene Atp2b4): 9.79 | Expression of mRNA in BFU-E after 4 h 100 nM DEX (RPKM) (gene Atp2b4): 43.89 RPKM | Expression of mRNA in BFU-E after 4 h 100 nM DEX (RPKM) (gene Bcl2): 6.45 RPKM | Expression change log2 ((100 nM DEX)/(0 nM DEX)) (gene Bcl2): 1.69 | Expression of mRNA in BFU-E after 4 h 100 nM DEX (RPKM) (gene Cables1): 4.90 RPKM | Expression change log2 ((100 nM DEX)/(0 nM DEX))2 (gene Ccnd1): 1.34 | Expression level log2((100 nM DEX)* (0 nM DEX)) (gene Ccnd1): 3.76 | Expression of mRNA in BFU-E after 4 h 100 nM DEX (RPKM) (gene Ccnd1): 5.86 RPKM | Expression level log2((100 nM DEX)* (0 nM DEX)) (gene Cd59a): 2.18 | Expression of mRNA in BFU-E after 4 h 100 nM DEX (RPKM) (gene Cd59a): 3.15 RPKM | Expression of mRNA in BFU-E after 4 h 100 nM DEX (RPKM) (gene Clca1): 7.54 RPKM | Expression change log2 ((100 nM DEX)/(0 nM DEX)) (gene Clca1): 2.07 | Expression level log2((100 nM DEX)* (0 nM DEX)) (gene Clcn2): 5.04 | Expression of mRNA in BFU-E after 4 h 100 nM DEX (RPKM) (gene Clcn2): 8.78 RPKM | Expression level log2((100 nM DEX)* (0 nM DEX)) (gene Clint1): 15.15 | Expression of mRNA in BFU-E after 4 h 100 nM DEX (RPKM) (gene Clint1): 285.78 RPKM | Expression of mRNA in BFU-E after 4 h 100 nM DEX (RPKM) (gene Clstn1): 70.51 RPKM | Expression change log2 ((100 nM DEX)/(0 nM DEX)) (gene Clstn1): 1.72 | Expression level log2((100 nM DEX)* (0 nM DEX)) (gene Cyth3): 11.35 | Expression of mRNA in BFU-E after 4 h 100 nM DEX (RPKM) (gene Cyth3): 75.31 RPKM | Expression of mRNA in BFU-E after 4 h 100 nM DEX (RPKM) (gene Ddit4): 20.23 RPKM | Expression change log2 ((100 nM DEX)/(0 nM DEX)) (gene Ddit4): 3.08 | Expression level log2((100 nM DEX)* (0 nM DEX)) (gene E430018J23Rik): 2.10 | Expression of mRNA in BFU-E after 4 h 100 nM DEX (RPKM) (gene E430018J23Rik): 3.02 RPKM | Expression of mRNA in BFU-E after 4 h 100 nM DEX (RPKM) (gene Egln3): 16.47 RPKM | Expression change log2 ((100 nM DEX)/(0 nM DEX)) (gene Egln3): 3.00 | Expression of mRNA in BFU-E after 4 h 100 nM DEX (RPKM) (gene Egr1): 18.06 RPKM | Expression of mRNA in BFU-E after 4 h 100 nM DEX (RPKM) (gene Fam46a): 6.44 RPKM | Expression change log2 ((100 nM DEX)/(0 nM DEX)) (gene Fam46a): 1.68 | Expression of mRNA in BFU-E after 4 h 100 nM DEX (RPKM) (gene Fam46c): 13.90 RPKM | Expression level log2((100 nM DEX)* (0 nM DEX)) (gene Fam55c): 5.91 | Expression of mRNA in BFU-E after 4 h 100 nM DEX (RPKM) (gene Fam55c): 11.20 RPKM | Expression of mRNA in BFU-E after 4 h 100 nM DEX (RPKM) (gene Fam83g): 8.67 RPKM | Expression level log2((100 nM DEX)* (0 nM DEX)) (gene Fes): 2.34 | Expression of mRNA in BFU-E after 4 h 100 nM DEX (RPKM) (gene Fes): 3.48 RPKM | Expression of mRNA in BFU-E after 4 h 100 nM DEX (RPKM) (gene Fkbp5): 74.76 RPKM | Expression change log2 ((100 nM DEX)/(0 nM DEX)) (gene Fkbp5): 1.71 | Expression level log2((100 nM DEX)* (0 nM DEX)) (gene Fkbp11): 9.88 | Expression of mRNA in BFU-E after 4 h 100 nM DEX (RPKM) (gene Fkbp11): 44.44 RPKM | Expression of mRNA in BFU-E after 4 h 100 nM DEX (RPKM) (gene Frmd4a): 28.77 RPKM | Expression change log2 ((100 nM DEX)/(0 nM DEX)) (gene Frmd4a): 2.03 | Expression level log2((100 nM DEX)* (0 nM DEX)) (gene Glul): 12.54 | Expression of mRNA in BFU-E after 4 h 100 nM DEX (RPKM) (gene Glul): 110.54 RPKM | Expression change log2 ((100 nM DEX)/(0 nM DEX))2 (gene Gm129): 1.01 | Expression level log2((100 nM DEX)* (0 nM DEX)) (gene Gm129): 2.29 | Expression of mRNA in BFU-E after 4 h 100 nM DEX (RPKM) (gene Gm129): 3.14 RPKM | Expression of mRNA in BFU-E after 4 h 100 nM DEX (RPKM) (gene Gna14): 3.37 RPKM | Expression level log2((100 nM DEX)* (0 nM DEX)) (gene Gng13): 3.81 | Expression of mRNA in BFU-E after 4 h 100 nM DEX (RPKM) (gene Gng13): 5.76 RPKM | Expression of mRNA in BFU-E after 4 h 100 nM DEX (RPKM) (gene Gsta4): 9.00 RPKM | Expression change log2 ((100 nM DEX)/(0 nM DEX)) (gene Gsta4): 2.60 | Expression of mRNA in BFU-E after 4 h 100 nM DEX (RPKM) (gene Hif3a): 101.46 RPKM | Expression change log2 ((100 nM DEX)/(0 nM DEX)) (gene Hif3a): 1.38 | Expression of mRNA in BFU-E after 4 h 100 nM DEX (RPKM) (gene Hopx): 13.32 RPKM | Expression change log2 ((100 nM DEX)/(0 nM DEX)) (gene Hopx): 1.82 | Expression of mRNA in BFU-E after 4 h 100 nM DEX (RPKM) (gene Hp): 4.41 RPKM | Expression change log2 ((100 nM DEX)/(0 nM DEX))2 (gene Ier2): 1.05 | Expression level log2((100 nM DEX)* (0 nM DEX)) (gene Ier2): 10.07 | Expression of mRNA in BFU-E after 4 h 100 nM DEX (RPKM) (gene Ier2): 47.27 RPKM | Expression level log2((100 nM DEX)* (0 nM DEX)) (gene Ier3): 3.80 | Expression of mRNA in BFU-E after 4 h 100 nM DEX (RPKM) (gene Itgb3): 7.39 RPKM | Expression change log2 ((100 nM DEX)/(0 nM DEX)) (gene Itgb3): 2.37
